Results reported in patent US20230265105A1, “MACROCYCLIC 7-PYRAZOL-5-YL-INDOLE DERIVATIVES AS INHIBITORS OF MCL-1” (Janssen Pharmaceutica NV, priority 2020, published 2023).

How the values were obtained:
[1] = molecular target: Myeloid Cell Leukemia 1 (Mcl-1) (Homo sapiens, UniProt Q07820); assay: Terbium labeled Mcl-1 HTRF binding assay with Cy5-labeled BIM BH3 peptide; settings: Ki=IC50/(1+[L]/Kd), [L]=8 nM, Kd=10 nM, 60 min incubation at room temperature, read-out: Tb-MCL1 Ki
Experimental: Terbium labeled Myeloid Cell Leukemia 1 (Mcl-1) homogeneous time-resolved fluorescence (HTRF) binding assay utilizing the BIM BH3 peptide (H2N-(C/Cy5Mal) WIAQELRRIGDEFN-OH) as the binding partner for Mcl-1.
This assay evaluated inhibition of the BH3 domain: Mcl-1 interaction by measuring the displacement of Cy5-labeled BIM BH3 peptide (H2N—(C/Cy5Mal) WIAQELRRIGDEFN-OH) in the HTRF assay format.
The following assay and stock buffers were prepared for use in the assay: (a) Stock buffer: 10 mM Tris-HCl, pH=7.5+150 mM NaCl, filtered, sterilized, and stored at 4° C.; and (b) 1×assay buffer, where the following ingredients were added fresh to stock buffer: 2 mM dithiothreitol (DTT), 0.0025% Tween-20, 0.1 mg/mL bovine serum albumin (BSA). The 1×Tb-Mcl-1+Cy5 Bim peptide solution was prepared by diluting the protein stock solution using the 1×assay buffer (b) to 25 pM Tb-Mcl-1 and 8 nM Cy5 Bim peptide.
Using the Acoustic ECHO, 100 nL of 100×test compound(s) were dispensed into individual wells of a white 384-well Perkin Elmer Proxiplate, for a final compound concentration of 1× and final DMSO concentration of 1%. Inhibitor control and neutral control (NC, 100 nL of 100% DMSO) were stamped into columns 23 and 24 of assay plate, respectively. Into each well of the plate was then dispensed 10 μL of the 1×Tb-Mcl-1+Cy5 Bim peptide solution. The plate was centrifuged with a cover plate at 1000 rpm for 1 minute, then incubated for 60 minutes at room temperature with plates covered.
The TR-FRET signal was read on an BMG PHERAStar FSX MicroPlate Reader at room temperature using the HTRF optic module (HTRF: excitation: 337 nm, light source: laser, emission A: 665 nm, emission B: 620 nm, integration start: 60 μs, integration time: 400 μs).
The BMG PHERAStar FSX MicroPlate Reader was used to measure fluorescence intensity at two emission wavelengths—665 nm and 620 nm—and report relative fluorescence units (RFU) for both emissions, as well as a ratio of the emissions (665 nm/620 nm)*10,000. The RFU values were normalized to percent inhibition as follows:
% inhibition=(((NC−IC)−(compound−IC))/(NC−IC))*100
where IC (inhibitor control, low signal)=mean signal of 1×Tb-MCl-1+Cy5 Bim peptide+inhibitor control or 100% inhibition of Mcl-1; NC (neutral control, high signal)=mean signal 1×Tb-MCl-1+Cy5 Bim peptide with DMSO only or 0% inhibition
An 11-point dose response curve was generated to determine IC50 values (using GenData) based on the following equation:
Y=Bottom+(Top−Bottom)/(1+10^((log IC50−X)*HillSlope))
where Y=% inhibition in the presence of X inhibitor concentration; Top=100% inhibition derived from the IC (mean signal of Mcl-1+inhibitor control); Bottom=0% inhibition derived from the NC (mean signal of Mcl-1+DMSO); Hillslope=Hill coefficient; and IC50=concentration of compound with 50% inhibition in relation to top/neutral control (NC).
In this assay [L]=8 nM and Kd=10 nM
Representative compounds of the present invention were tested according to the procedure as described above, with results as listed in the Table below (n.d. means not determined).

[2] = system: MOLP-8 human multiple myeloma cell line; assay: MOLP8 Caspase-Glo 3/7 apoptosis induction assay; type: cell-based; settings: MOLP-8 cells, 2 hours at 37° C., 30 μM highest conc., averaged over all runs on all batches
Description: MCL-1 is a regulator of apoptosis and is highly over-expressed in tumor cells that escape cell death. The assay evaluates the cellular potency of small-molecule compounds targeting regulators of the apoptosis pathway, primarily MCL-1, Bfl-1, Bcl-2, and other proteins of the Bcl-2 family. Protein-protein inhibitors disrupting the interaction of anti-apoptotic regulators with BH3-domain proteins initiate apoptosis.
The Caspase-Glo® 3/7 Assay is a luminescent assay that measures caspase-3 and -7 activities in purified enzyme preparations or cultures of adherent or suspension cells. The assay provides a proluminescent caspase-3/7 substrate, which contains the tetrapeptide sequence DEVD. This substrate is cleaved to release aminoluciferin, a substrate of luciferase used in the production of light. Addition of the single Caspase-Glo® 3/7 Reagent in an “add-mix-measure” format results in cell lysis, followed by caspase cleavage of the substrate and generation of a “glow-type” luminescent signal.
This assay uses the MOLP-8 human multiple myeloma cell line, which is sensitive to MCL-1 inhibition.
Cell cultures were maintained between 0.2 and 2.0×10^6 cells/mL. The cells were harvested by collection in 50 mL conical tubes. The cells were then pelleted at 500 g for 5 mins before removing supernatant and resuspension in fresh pre-warmed culture medium. The cells were counted and diluted as needed.
The assay reagent was prepared by transferring the buffer solution to the substrate vial and mixing. The solution may be stored for up to 1 week at 4° C. with negligible loss of signal.
Compounds were delivered in assay-ready plates (Proxiplate) and stored at −20° C.
Assays always include 1 reference compound plate containing reference compounds. The plates were spotted with 40 nL of compounds (0.5% DMSO final in cells; serial dilution; 30 μM highest conc. 1/3 dilution, 10 doses, duplicates). The compounds were used at room temperature and 4 μL of pre-warmed media was added to all wells except column 2 and 23. The negative control was prepared by adding 1% DMSO in media. The positive control was prepared by adding the appropriate positive control compound in final concentration of 60 μM in media. The plate was prepared by adding 4 μL negative control to column 23, 4 μL positive control to column 2 and 4 μL cell suspension to all wells in the plate. The plate with cells was then incubated at 37° C. for 2 hours. The assay signal reagent is the Caspase-Glo solution described above, and 8 μL was added to all wells. The plates were then sealed and measured after 30 minutes.
The activity of a test compound was calculated as percent change in apoptosis induction as follows:
[formula] [formula] % Effect (AC50)=100−((sample−LC)/(HC−LC))*100
% Control=(sample/HC)*100
% Control min=(sample−LC)/(HC−LC)*100

Chain of Myeloid Cell Leukemia 1 (Mcl-1) (Q07820 whole entry): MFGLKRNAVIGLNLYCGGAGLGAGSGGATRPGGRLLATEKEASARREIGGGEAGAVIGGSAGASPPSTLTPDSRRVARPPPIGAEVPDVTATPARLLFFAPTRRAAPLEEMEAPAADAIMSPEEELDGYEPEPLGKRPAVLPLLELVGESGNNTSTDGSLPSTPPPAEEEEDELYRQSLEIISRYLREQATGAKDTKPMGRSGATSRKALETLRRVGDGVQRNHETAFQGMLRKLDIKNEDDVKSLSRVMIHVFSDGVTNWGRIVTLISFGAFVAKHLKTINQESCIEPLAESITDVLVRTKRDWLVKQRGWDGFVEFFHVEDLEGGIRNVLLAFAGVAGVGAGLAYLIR

SMILES	Ki [1]	AC50 [2]	AC50 ([2]; Homo sapiens, MOLP-8, 2 h)
COCCOCc1nn(C)c2c1CSCc1cc(n(C)n1)CCc1cc(c3ccc(F)cc3c1)OCCCc1c(C(=O)O)n(C)c3c-2c(Cl)ccc13 (single isomer, unassigned) [Compound 7]	52.3 nM	20400 nM	–
Cn1nc2cc1CSc1cc(c3ccccc3c1)OCCCc1c(C(=O)O)n(C)c3c(c(Cl)ccc13)-c1c(cnn1C)CSC2 (single isomer, unassigned) [Compound 6]	0.062 nM	–	58 nM
Cc1nn(C)c2c1CSCc1cc(n(C)n1)CSc1cc(c3ccccc3c1)OCCCc1c(C(=O)O)n(C)c3c-2c(Cl)ccc13 (single isomer, unassigned) [Compound 2]	0.039 nM	54 nM	–
COCCOCCn1c(C(=O)O)c2c3ccc(Cl)c(c31)-c1c(cnn1C)CSCc1cc(n(C)n1)CCc1cc(c3ccc(F)cc3c1)OCCC2 (single isomer, unassigned) [Compound 22]	0.029 nM	22 nM	–
Cc1nn(C)c2c1CSCc1cc(n(C)n1)CCc1cc(c3ccccc3c1)OCCCc1c(C(=O)O)n(C)c3c-2c(Cl)ccc13 (single isomer, unassigned) [Compound 11a]	3.68 nM	2380 nM	–
Cc1nn(C)c2c1CSCc1cc(n(C)n1)CCc1cc(c3ccc(F)cc3c1)OCCCc1c(C(=O)O)n(C)c3c-2c(Cl)ccc13 (single isomer, unassigned) [Compound 10a]	0.041 nM	68 nM	–
COCCOCCn1c(C(=O)O)c2c3ccc(Cl)c(c31)-c1c(cnn1C)CSCc1cc(n(C)n1)CCc1cc(c3ccc(F)cc3c1)OCCC2 (single isomer, unassigned) [Compound 20]	200 nM	30000 nM	–
Cn1nc2cc1CCc1cc(c3ccc(F)cc3c1)OCCCc1c(C(=O)O)n(CCN3CCOCC3)c3c(c(Cl)ccc13)-c1c(cnn1C)CSC2 (single isomer, unassigned) [Compound 19]	50.1 nM	29500 nM	–
Cn1nc2cc1CCc1cc(c3ccc(F)cc3c1)OCCCc1c(C(=O)O)n(CCN3CCOCC3)c3c(c(Cl)ccc13)-c1c(cnn1C)CSC2 (single isomer, unassigned) [Compound 21]	0.02 nM	82 nM	–
Cc1nn(C)c2c1CSCc1cc(n(C)n1)CCc1cc(c3ccc(F)cc3c1)OCCCc1c(C(=O)O)n(C)c3c-2c(Cl)ccc13 (single isomer, unassigned) [Compound 9]	18.7 nM	8960 nM	–
COCCOCCc1nn(C)c2c1CSCc1cc(n(C)n1)CCc1cc(c3ccc(F)cc3c1)OCCCc1c(C(=O)O)n(C)c3c-2c(Cl)ccc13 (single isomer, unassigned) [Compound 17]	0.011 nM	15 nM	–
Cn1nc2cc1CCc1cc(c3ccc(F)cc3c1)OCCCc1c(C(=O)O)[nH]c3c(c(Cl)ccc13)-c1c(cnn1C)CSC2 (single isomer, unassigned) [Compound 26]	0.045 nM	235 nM	–
COCCn1c(C(=O)O)c2c3ccc(Cl)c(c31)-c1c(cnn1C)CSCc1cc(n(C)n1)CCc1cc(c3ccc(F)cc3c1)OCCC2 (single isomer, unassigned) [Compound 23]	0.024 nM	27 nM	–
Cc1nn(C)c2c1CSCc1cc(n(C)n1)CSc1cc(c3ccccc3c1)OCCCc1c(C(=O)O)n(C)c3c-2c(Cl)ccc13 (single isomer, unassigned) [Compound 1]	0.746 nM	1220 nM	–
COCCOCc1nn(C)c2c1CSCc1cc(n(C)n1)CCc1cc(c3ccc(F)cc3c1)OCCCc1c(C(=O)O)n(C)c3c-2c(Cl)ccc13 (single isomer, unassigned) [Compound 8]	0.025 nM	15 nM	–
COCCOCc1nn(C)c2c1CSCc1cc(n(C)n1)CCc1cc(c3ccccc3c1)OCCCc1c(C(=O)O)n(C)c3c-2c(Cl)ccc13 (single isomer, unassigned) [Compound 3]	98.2 nM	> 30000 nM	–
Cc1nn(C)c2c1CSCc1cc(n(C)n1)CCc1cc(c3ccccc3c1)OCCCc1c(C(=O)O)n(C)c3c-2c(Cl)ccc13 (single isomer, unassigned) [Compound 12a]	0.031 nM	29 nM	–
Cc1nn(C)c2c1CSCc1cc(n(C)n1)CCc1cc(c3ccccc3c1)OCCCc1c(C(=O)O)n(C)c3c-2c(Cl)ccc13 (single isomer, unassigned) [Compound 11]	3.02 nM	1620 nM	–
Cc1nn(C)c2c1CSCc1cc(n(C)n1)CCc1cc(c3ccc(F)cc3c1)OCCCc1c(C(=O)O)n(C)c3c-2c(Cl)ccc13 (single isomer, unassigned) [Compound 10]	0.307 nM	10 nM	–
COCCOCc1nn(C)c2c1CSCc1cc(n(C)n1)CCc1cc(c3ccccc3c1)OCCCc1c(C(=O)O)n(C)c3c-2c(Cl)ccc13 (single isomer, unassigned) [Compound 4]	0.023 nM	46 nM	–
COCCOCc1nn(C)c2c1CSCc1cc(n(C)n1)CCc1cc(c3ccc(F)c(F)c3c1)OCCCc1c(C(=O)O)n(C)c3c-2c(Cl)ccc13 (single isomer, unassigned) [Compound 16]	0.021 nM	13 nM	–
COCCOCCc1nn(C)c2c1CSCc1cc(n(C)n1)CCc1cc(c3ccc(F)cc3c1)OCCCc1c(C(=O)O)n(C)c3c-2c(Cl)ccc13 (single isomer, unassigned) [Compound 18]	2.1 nM	2430 nM	–
CCn1c(C(=O)O)c2c3ccc(Cl)c(c31)-c1c(cnn1C)CCCc1cc(n(C)n1)CCc1cc(c3ccc(F)cc3c1)OCCC2 (single isomer, unassigned) [Compound 13]	0.051 nM	22 nM	–
CN(C)CCn1c(C(=O)O)c2c3ccc(Cl)c(c31)-c1c(cnn1C)CSCc1cc(n(C)n1)CCc1cc(c3ccc(F)cc3c1)OCCC2 (single isomer, unassigned) [Compound 27]	0.031 nM	–	117 nM
